Some results are limits rather than exact numbers.

As usually defined, the IC50 is the concentration needed to halve the response being measured.

T1 sequence (P00746 26-253): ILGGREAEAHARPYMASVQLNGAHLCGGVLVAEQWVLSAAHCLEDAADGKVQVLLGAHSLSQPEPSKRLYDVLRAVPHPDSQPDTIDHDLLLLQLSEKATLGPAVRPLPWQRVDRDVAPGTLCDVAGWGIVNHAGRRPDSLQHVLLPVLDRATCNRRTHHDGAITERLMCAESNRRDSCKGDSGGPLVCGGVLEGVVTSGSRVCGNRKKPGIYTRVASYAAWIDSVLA

One assay concerns the target T1, Human Factor D (Homo sapiens, UniProt P00746).
T1 construct: purified from human serum; purchased Complement Technology, Inc; host or cells: human serum
Briefly: Human Factor D assay (Example 8).
Details: not given
The format is biochemical. As for the experimental part:
Human Factor D (purified from human serum, Complement Technology, Inc.) at 80 nM final concentration was incubated with test compound at various concentrations for 5 minutes at room temperature in 50 mM Tris, 1M NaCl, pH 7.5. A synthetic substrate Z-L-Lys-SBzl and DTNB (Ellman's reagent) are added to final concentrations of 100 μM each. […] IC50 values are calculated by nonlinear regression of complement Factor D reaction rates as a function of test compound concentration.
The compound `CC(=O)c1cn(CC(=O)N2C[C@H](F)C[C@H]2C(=O)Nc2cccc(SC(F)(F)F)c2)c2cc(O)ccc12` [Compound 48, (2S,4R)-1-(2-(3-acetyl-6-hydroxy-1H-indol-1-yl)acetyl)-4-fluoro-N-(3-(trifluoromethylthio)phenyl)pyrrolidine-2-carboxamide] yielded a concentration for half-maximal inhibition (IC50) of less than 1 µM.
On the same count and under the same terms, for `CC(=O)c1cn(CC(=O)N2C[C@H](F)C[C@H]2C(=O)NCc2cc(P(=O)(O)O)cc(Cl)c2F)c2ccccc12` [Compound 63, 3-(((2S,4R)-1-(2-(3-acetyl-1H-indol-1-yl)acetyl)-4-fluoropyrrolidine-2-carboxamido)methyl)-5-chloro-4-fluorophenylphos-phonic acid] the value was less than 1 µM.

The same assay, now with this note: Table 1; Human Factor D 80 nM, substrate Z-L-Lys-SBzl; read-out: IC50.
Regarding `CC(C)(C)OC(=O)N[C@@H](Cc1c[nH]c2ccccc12)C(=O)N1C[C@H](F)C[C@H]1C(=O)NCc1cccc(Cl)c1F` [Compound 38, tert-butyl (S)-1-((2S,4R)-2-(3-chloro-2-fluorobenzylcarbamoyl)-4-fluoropyrrolidin-1-yl)-3-(1H-indol-3-yl)-1-oxopropan-2-ylcarbamate], the IC50 is greater than 10 µM.
Same read-out and setting: for `N[C@@H](Cc1c[nH]c2ccccc12)C(=O)N1C[C@H](F)C[C@H]1C(=O)NCc1cccc(Cl)c1F` [Compound 39, (2S,4R)-1-((S)-2-amino-3-(1H-indol-3-yl)propanoyl)-N-(3-chloro-2-fluorobenzyl)-4-fluoropyrrolidine-2-carboxamide] the value was greater than 10 µM; for `CC(=O)c1nn(CC(=O)N2C[C@H](F)C[C@H]2C(=O)Nc2cccc(SC(F)(F)F)c2)c2cnccc12` [Compound 45, (2S,4R)-1-(2-(3-acetyl-1H-pyrazolo[3,4-c]pyridin-1-yl)acetyl)-4-fluoro-N-(3-(trifluoromethylthio)phenyl)pyrrolidine-2-carboxamide], less than 1 µM.
Still for that read-out and setting: in the case of `O=C(NCc1cccc(Cl)c1F)[C@@H]1C[C@@H](F)CN1C(=O)Cn1cc([N+](=O)[O-])c2ccccc21` [Compound 46, (2S,4R)-N-(3-chloro-2-fluorobenzyl)-4-fluoro-1-(2-(3-nitro-1H-indol-1-yl)acetyl)pyrrolidine-2-carboxamide] it was less than 1 µM.
The same measure, in the same setting: in the case of `CC(=O)Nc1cn(CC(=O)N2C[C@H](F)C[C@H]2C(=O)NCc2cccc(Cl)c2F)c2ccccc12` [Compound 47, (2S,4R)-1-(2-(3-acetamido-1H-indol-1-yl)acetyl)-N-(3-chloro-2-fluorobenzyl)-4-fluoropyrrolidine-2-carboxamide] it was less than 1 µM.
As for `O=C(NCc1cccc(Cl)c1F)[C@@H]1C[C@@H](F)CN1C(=O)c1csc(-c2cccnc2)n1` [Compound 50, (2S,4R)-N-(3-chloro-2-fluorobenzyl)-4-fluoro-1-(2-(pyridin-3-yl)thiazole-4-carbonyl)pyrrolidine-2-carboxamide], the half-inhibitory concentration (IC50) is greater than 10 µM.
Still for that read-out and setting: for `CC(=O)Nc1ccc(C(=O)N2C[C@H](F)C[C@H]2C(=O)NCc2cccc(Cl)c2F)cn1` [Compound 51, (2S,4R)-1-(6-acetamidonicotinoyl)-N-(3-chloro-2-fluorobenzyl)-4-fluoropyrrolidine-2-carboxamide] the value was greater than 10 µM; for `O=C(NCc1cccc(Cl)c1F)[C@@H]1C[C@@H](F)CN1C(=O)Cn1nc(I)c2ccncc21` [Compound 52, (2S,4R)-N-(3-chloro-2-fluorobenzyl)-4-fluoro-1-(2-(3-iodo-1H-pyrazolo[3,4-c]pyridin-1-yl)acetyl)pyrrolidine-2-carboxamide], less than 1 µM.
Same read-out and setting: for `O=C(NCc1cccc(Cl)c1F)[C@@H]1C[C@@H](F)CN1C(=O)Nc1cn(C(=O)C2CC2)c2ccccc12` [Compound 54, (2S,4R)-N2-(3-chloro-2-fluorobenzyl)-N1-(1-(cyclopropanecarbonyl)-1H-indol-3-yl)-4-fluoropyrrolidine-1,2-dicarboxamide] the value was less than 1 µM.
As for `CC(=O)c1cn(C(C)C(=O)N2C[C@H](F)C[C@H]2C(=O)NCc2cccc(Cl)c2F)c2ccccc12` (stereo partly shown) [Compound 55], the 50% inhibitory concentration (IC50) is greater than 10 µM.
The same measure, in the same setting: for `CC(=O)c1cn(C(C)(C)C(=O)N2C[C@H](F)C[C@H]2C(=O)NCc2cccc(Cl)c2F)c2ccccc12` [Compound 56] the value was greater than 10 µM; for `O=C(NCc1cccc(Cl)c1F)[C@@H]1C[C@@H](F)CN1C(=O)Cn1nc(P(=O)(O)O)c2ccncc21` [Compound 57], greater than 10 µM.
On the same count and under the same terms, in the case of `O=C(NCc1cccc(Cl)c1F)[C@@H]1C[C@@H](F)CN1C(=O)CN1C=NS(=O)(=O)c2ccccc21` [Compound 65, (2S,4R)-N-(3-chloro-2-fluorobenzyl)-1-(2-(1,1-dioxido-4H-benzo[e][1,2,4]thiadiazin-4-yl)acetyl)-4-fluoropyrrolidine-2-carboxamide] it was greater than 10 µM.
The same measure, in the same setting: in the case of `CC(C)(C)OC(=O)N1CCc2c(n(CC(=O)N3C[C@H](F)C[C@H]3C(=O)NCc3cccc(Cl)c3F)c3ccccc23)C1` [Compound 67, tert-butyl 9-(2-((2S,4R)-2-(3-chloro-2-fluorobenzylcarbamoyl)-4-fluoropyrrolidin-1-yl)-2-oxoethyl)-3,4-dihydro-1H-pyrido[3,4-b]indole-2(9H)-carboxylate] it was greater than 10 µM; in that of `O=C(NCc1cccc(Cl)c1F)[C@@H]1C[C@@H](F)CN1C(=O)Cn1c2c(c3ccccc31)CCNC2` [Compound 68, (2S,4R)-N-(3-chloro-2-fluorobenzyl)-1-(2-(3,4-dihydro-1H-pyrido[3,4-b]indol-9(2H)-yl)acetyl)-4-fluoropyrrolidine-2-carboxamide], greater than 10 µM; in that of `CCOC(=O)CC(=O)N1CCc2c(n(CC(=O)N3C[C@H](F)C[C@H]3C(=O)NCc3cccc(Cl)c3F)c3ccccc23)C1` [Compound 70, ethyl 3-(9-(2-((2S,4R)-2-(3-chloro-2-fluorobenzylcarbamoyl)-4-fluoropyrrolidin-1-yl)-2-oxoethyl)-3,4-dihydro-1H-pyrido[3,4-b]indol-2(9H)-yl)-3-oxopropanoate], greater than 10 µM.
On to `CC(=O)n1cc(C(=O)C(=O)N2C[C@H](F)C[C@H]2C(=O)NCc2cccc(Cl)c2F)c2ccccc21` [Compound 71, (2S,4R)-1-(2-(1-acetyl-1H-indol-3-yl)-2-oxoacetyl)-N-(3-chloro-2-fluorobenzyl)-4-fluoropyrrolidine-2-carboxamide], for which the IC50 was greater than 10 µM.
Still for that read-out and setting: for `O=C(O)CCC(=O)N1CCc2c(n(CC(=O)N3C[C@H](F)C[C@H]3C(=O)NCc3cccc(Cl)c3F)c3ccccc23)C1` [Compound 72, 4-(9-(2-((2S,4R)-2-(3-chloro-2-fluorobenzylcarbamoyl)-4-fluoropyrrolidin-1-yl)-2-oxoethyl)-3,4-dihydro-1H-pyrido[3,4-b]indol-2(9H)-yl)-4-oxobutanoic acid] the value was greater than 10 µM.
Same read-out and setting: in the case of `O=C(NCc1cccc(Cl)c1F)[C@@H]1C[C@@H](F)CN1C(=O)Cn1nc(-c2cn[nH]c2)c2ccncc21` [Compound 73, (2S,4R)-1-(2-(3-(1H-pyrazol-4-yl)-1H-pyrazolo[3,4-c]pyridin-1-yl)acetyl)-N-(3-chloro-2-fluorobenzyl)-4-fluoropyrrolidine-2-carboxamide] it was less than 1 µM.
Still for that read-out and setting: for `C=C(F)c1nn(CC(=O)N2C[C@H](F)C[C@H]2C(=O)NCc2cccc(Cl)c2F)c2cnccc12` [Compound 74, (2S,4R)-N-(3-chloro-2-fluorobenzyl)-4-fluoro-1-(2-(3-(1-fluorovinyl)-1H-pyrazolo[3,4-c]pyridin-1-yl)acetyl)pyrrolidine-2-carboxamide] the value was less than 1 µM.

For the origin of these results see patent US10092584B2 (Achillion Pharmaceuticals, Inc., priority 2015, dated 2018).
